“Also recorded” adds a separate entry of the source. Where two headings read alike, the source gives them in different places.
Legend:
[1] = test system: poliovirus Sabin strain 1 (PV1); experiment: microbe, parasite or virus in culture; format: cell-based; conditions: for EC50: Enterovirus C, HeLa, 72 h, read-out: EC50 PV1
[2] = test system: poliovirus Sabin strains 1, 2, and 3; experiment: microbe, parasite or virus in culture; format: cell-based; conditions: for EC50: Enterovirus C, read-out: EC50
[3] = test system: HeLa cells (ATCC CCL-2)
[4] = in vitro; conditions: human
[5] = in vivo; cited from earlier work
[6] = test system: poliovirus Sabin strain 2 (PV2); experiment: microbe, parasite or virus in culture; format: cell-based; conditions: Enterovirus C, HeLa, 72 h, read-out: EC50 PV2
[7] = test system: poliovirus Sabin strain 3 (PV3); experiment: microbe, parasite or virus in culture; format: cell-based; conditions: Enterovirus C, HeLa, 72 h, read-out: EC50 PV3
[8] = cited from earlier work
[9] = test system: poliovirus 1 Sabin; format: cell-based
[10] = test system: PV; conditions: in vivo; cited from earlier work

Row | SMILES | EC50 [1] | EC50 [2] | CC50 [4] | EC50 [6] | EC50 [7] | also measured
1 | C#CCC(C(=O)NC(C=CC(=O)OCC)CC1CCNC1=O)n1cccc(NC(=O)c2cc(C)on2)c1=O (stereo not shown) [Compound 1] | 0.26 ± 0.24 µM | < 1 µM | > 100 µM |  |  | cytotoxicity [3]: without any signs of cytotoxicity; oral bioavailability [5]: excellent
2 | NC(=O)c1ncn([C@@H]2O[C@H](CO)[C@@H](O)[C@H]2O)n1 [Ribavirin] | 57 ± 13 µM | 50 to 60 µM | > 100 µM | 64 ± 4 µM | 55 ± 7 µM | 
3 | CC(C)S(=O)(=O)n1c(N)nc2ccc(/C(=N/O)c3ccccc3)cc21 [Enviroxime] | 0.2 ± 0.25 µM | 0.035 to 0.2 µM | 58 ± 6 µM | 0.056 ± 0.02 µM | 0.035 ± 0.029 µM | activity in vivo [8]: weak to moderate; toxicity in vivo [8]: toxicity
4 | Cc1cc(CCCOc2c(C)cc(-c3noc(C(F)(F)F)n3)cc2C)on1 [Pleconaril] | > 100 µM |  | 66 ± 6 µM | 1.1 ± 0.6 µM | 0.22 ± 0.15 µM | Inhibitory activity against PV1 [1]: inactive; reduction of infectious virus yield [9]: not able to reduce infectious virus yield; EC50 ([2]; HeLa): < 2 µM; benefit of treatment in a persistently infected person [10]: no benefit; virus excretion in a child persistently infected with PV [10]: effective in stopping virus excretion
5 | N#Cc1cc([N+](=O)[O-])ccc1Oc1ccc(Cl)c(Cl)c1 [MDL-860, 2-(3,4-dichlorophenoxy)-5-nitrobenzonitrile] | 6 ± 1.6 µM |  | > 100 µM | 3.6 ± 2.2 µM | 2.2 ± 1.5 µM | 
6 | CCOC(=O)c1ccc(OCCC2CCN(c3ccc(C)nn3)CC2)cc1 [Pirodavir (R77975)] | 10 ± 1 µM |  | > 100 µM | 1.7 ± 0.1 µM | 0.56 ± 0.03 µM | EC50 ([2]; HeLa): < 2 µM; metabolic stability after oral administration [5]: metabolic instability
7 | CCOC(=O)/C=C/[C@H](C[C@@H]1CCNC1=O)NC(=O)[C@@H](CC(=O)[C@@H](NC(=O)c1cc(C)on1)C(C)C)Cc1ccc(F)cc1 [Rupintrivir] | 0.022 ± 0.028 µM |  | > 100 µM | 0.041 ± 0.024 µM | 0.0052 ± 0.0046 µM | decrease of infectious virus production [9]: 6 log10; reduction of virus progeny formation [9]: 10–1,000 fold; cytotoxicity [3]: without any signs of cytotoxicity
8 | [N-]=[N+]=N[C@]1(CO)O[C@@H](n2ccc(N)nc2=O)[C@H](O)[C@@H]1O [4’-azidocytidine, 4′-azidocytidine] | > 100 µM |  | > 100 µM | > 100 µM | > 100 µM | anti-PV activity [2]: inactive; also recorded: devoid of anti-PV activity
9 | C[C@@]1(O)[C@H](O)[C@@H](CO)O[C@H]1n1ccc(N)nc1=O [2'-C-methylcytidine, 2′-C-methylcytidine] | 15 ± 18 µM | 3.9 to 29 µM | > 100 µM | 29 ± 27 µM | 3.9 ± 2.3 µM | 
10 | CCOC(=O)c1ccc(OCCCC2CCN(c3ccc(C)nn3)CC2)cc1 [Pirodavir analog (R78206)] | 0.76 ± 0.18 µM |  | 27 ± 34 µM | 0.22 ± 0.19 µM | 0.11 ± 0.1 µM | Inhibitory activity against PV1 [1]: exhibited inhibitory activity; EC50 ([2]; HeLa): < 2 µM
11 | C[C@@]1(O)[C@H](O)[C@@H](CO)O[C@H]1n1cnc2c(N)ncnc21 [2'-C-methyladenosine, 2′-C-methyladenosine] | 5.5 µM | ~5 µM | 84 µM | 5.6 ± 0.1 µM | 5.4 ± 0.4 µM | 
12 | OC(c1ccccc1)c1nc2ccccc2[nH]1 (stereo not drawn) [HBB, 2-(α-hydroxybenzyl)-benzimidazole] | 300 ± 68 µM | 200 to 300 µM | > 400 µM | 225 ± 128 µM | 295 ± 88 µM | 
13 | N=c1ccn(Cc2nc3ccccc3n2-c2ccc(F)cc2)cc1 [MRL-1237] | 5.3 ± 0.3 µM |  | > 100 µM | 4.6 ± 1.4 µM | 3.8 ± 2.5 µM | 

Source: article PMC2570929 (Emerging Infectious Diseases, 2008)
